Laboratory results as given in patent US4562275A, “Antitumor platinum complexes” (priority 1984, dated 1985).
Values joined by “and” are separate entries in the source; they are usually repeats but may differ in a detail not shown here. Identical values can stand only once.

Experiments:
L1210 leukemia = experiment: Antitumor activity vs transplantable L1210 leukemia (ip) in mice; format: in vivo, mouse; conditions: for Max % T/C: dying mice only; for OD (optimum dose): optimum dose from the L1210 test
From the text: The antitumor activities of the complexes provided by the present invention have been determined against L-1210 leukemia in the mouse and, for certain of the complexes, against other mouse tumor systems.
(§1) Results of antitumor testing against the transplantable mouse tumors L1210 leukemia, cisplatin-resistant L1210 leukemia, B16 melanoma, Madison 109 lung carcinoma and colon 26 carcinoma are shown below in Tables 1 and 2.
In Table 1 are shown the maximum % T/C values obtained for each platinum compound versus L1210 leukemia using both single and qd 1→5 dosing.
(§2) The methods used to evaluate the platinum complexes for antitumor activity and toxicity in animals are summarized below. These methods have been published elsewhere in more detail (Rose, et al. Cancer Treat. Rep. 66: 135, 1982; Florczyk, et al, Cancer Treat. Rep. 66: 187, 1982).
(§3) The parent line of L1210 leukemia (L1210) was maintained in DBA/2 mice by ip transplantation of 10^5 cells at weekly intervals. […] B16 malenoma (B16) was maintained by sc transplant in C57BL/6 mice every two weeks. Madison 109 lung carcinoma (M109) and colon 26 carcinoma (C26) were maintained by sc transplant in BALB/c mice every two weeks.
(§4) The level and route of tumor inoculum, host, group size, and drug treatment schedule and route for each tumor type are summarized below in Table 6. Each complex was evaluated initially against L1210 at 4 dose levels per schedule selected on the basis of lethality data provided by the Wadley Institute. In subsequent experiments with the other tumors the complexes were evaluated at a minimum of 3 dose levels selected on the basis of maximum tolerated levels in the L1210 experiments. Cisplatin-treated groups and a saline-treated (or untreated) tumor control group were included in each experiment.
(§5) The L1210 experiments were terminated on Day 30 whereas the B16, C26 and M109 experiments were terminated on Day 60 (some C26 experiments were terminated on Day 75). Mice alive at the termination day were autopsied and considered cured if no tumor was visible. […] A complex was considered active if it produced a % T/C value ≥125.

B16 melanoma = experiment: Antitumor activity vs ip B16 melanoma in mice; format: in vivo, mouse; parameters: O.D.: unit not given here; conditions: for O.D.: ip B16 (3×; 9×); for Max. % T/C: ip B16 (3×; 9×): q4d × 3 or qd 1-9, ip, dying mice only
From the text: as §2, §3
The level and route of tumor inoculum, host, group size, and drug treatment schedule and route for each tumor type are summarized below in Table 6. Each complex was evaluated initially against L1210 at 4 dose levels per schedule selected on the basis of lethality data provided by the Wadley Institute.
as §5

C26 carcinoma = experiment: Antitumor activity vs ip C26 (colon 26) carcinoma in mice; format: in vivo, mouse; parameters: O.D.: unit not given here; conditions: for O.D.: ip C26 (2×; 4×); for Max. % T/C: ip C26 (2×; 4×): q3d × 2 or qd 1-4, ip, dying mice only
From the text: as §1, §2, §3, §4, §5
8 q3d^b × 2 or qd 1-4, ip

M109 carcinoma = experiment: Antitumor activity vs ip M109 (Madison 109 lung) carcinoma in mice; format: in vivo, mouse; parameters: O.D.: unit not given here; conditions: for O.D.: ip M109 (2×; 4×); for Max. % T/C: ip M109 (2×; 4×): q3d × 2 or qd 1-4, ip, dying mice only
From the text: as §1, §2, §3, §4, §5
8 q3d^a × 2 or qd 1-4, ip

BDF1 mice [1] = experiment: Nephrotoxicity: effect on blood urea nitrogen (BUN) in BDF1 mice; conditions: for BUN↑, Mouse: effect relative to cisplatin
Experimental: The other compounds were in such short supply that they were tested for effects on BUN values using the optimum dose (O.D.) from the L1210 test for dose selection.
The toxicity studies were done in male BDF1 mice (25-29 gm) and castrated male Fitch ferrets (1-1.5 kg).
The complexes that were active against L1210 were evaluated for nephrotoxicity by determining their effects on blood urea nitrogen (BUN) levels in mice. Groups of 40-50 mice/experiment were bled from the retro-orbital plexus and individual BUN values determined by a modified urease method using a Centrifichem System 400. The test complex, or saline for controls, was given at several dose levels (5-10 mice/dose) in single ip injections. The highest dose of the complex usually corresponded to its LD50 value or 1.5 times its optimal single dose in the L1210 experiment. At least two lower doses were included to evaluate dose-related effects. The BUN values were measured 4 and 7 days after dosing. BUN values ≥30 mg% were considered indicative of drug-induced nephrotoxicity.

BDF1 mice [2] = experiment: Deaths (D.14) in the BUN test in BDF1 mice; format: in vivo, mouse
[3] = tested on: L1210/CDDP (cisplatin resistant line of L1210 leukemia); experiment: Antitumor activity vs cisplatin-resistant L1210 leukemia (L1210/CDDP) in mice; format: in vivo, mouse; conditions: for Cures/total / O.D. (optimal dose): Day 1; for Max % T/C: Day 1, dying mice only
From the text: Results of antitumor testing against the transplantable mouse tumors L1210 leukemia, cisplatin-resistant L1210 leukemia, B16 melanoma, Madison 109 lung carcinoma and colon 26 carcinoma are shown below in Tables 1 and 2. […]
as §2, §3, §4, §5

[4] = L1210, single dose Day 1, ip, (a), (b) determinations
[5] = L1210, single dose Day 1, ip, dose giving the Max % T/C, same order

SMILES | O.D. (optimal dose) (L1210 leukemia; L1210, QD 1 → 5, ip) | Max % T/C (L1210 leukemia; L1210, QD 1 → 5, ip) | Max % T/C (L1210 leukemia; [4]) | O.D. (optimal dose) (L1210 leukemia; [5]) | OD (optimum dose) (L1210 leukemia) | O.D. (B16 melanoma) | Max. % T/C (B16 melanoma) | O.D. (C26 carcinoma) | Max. % T/C (C26 carcinoma) | O.D. (M109 carcinoma) | Max. % T/C (M109 carcinoma) | BUN↑, Mouse (BDF1 mice [1]) | Cures/total [3] | O.D. (optimal dose) [3] | Max % T/C [3] | other results
N[C@@H]1CCCC[C@H]1N.[O]=[Cr](=[O])([O-])[O-].[Pt+2] (relative stereo) [Example 9, chromato trans(-)-1,2-diaminocyclohexane platinum(II)] | 6 mg/kg/inj and 12 mg/kg/inj | 143% and 214% | 150% and 200% | 24 mg/kg/inj and 48 mg/kg/inj | 48 mg/kg/ip | 6 | 172% | 24 | 106% | 20 | 119% | 0 | – | – | – | Incidence of BUN > 30 mg % (BDF1 mice [1]; 48 mg/kg ip): 0/5; Incidence of BUN > 30 mg % (BDF1 mice [1]; 72 mg/kg ip): 0/5; Deaths D.14 (BDF1 mice [2]; 48 mg/kg ip): 0/5; Deaths D.14 (BDF1 mice [2]; 72 mg/kg ip): 0/5
N[C@@H]1CCCC[C@H]1N.O=C([O-])CCC(=O)C(=O)[O-].[Pt+2] (relative stereo) [Example 14, 2-ketoglutarato trans(-)-1,2-diaminocyclohexane platinum(II)] | 16 mg/kg/inj | 250% | 214% and 193% | 16 mg/kg/inj | – | 3 | 135% | – | – | – | – | – | 2/6 | 12 mg/kg/inj | 169% | –
CC(=O)CC(=O)[O-].CC(=O)CC(=O)[O-].N[C@@H]1CCCC[C@H]1N.[Pt+2] (relative stereo) [Example 4, bis(acetoacetato) trans(-)-1,2-diaminocyclohexane platinum(II)] | 5 mg/kg/inj | 214% | 200% and 207% | 20 mg/kg/inj and 18 mg/kg/inj | 20 mg/kg/ip | 1 | 150% | 5 | 120% | 8 | 119% | 0 | – | 12 mg/kg/inj | 163% | Cures/total (L1210 leukemia; L1210, QD 1 → 5, ip): 1/6; Incidence of BUN > 30 mg % (BDF1 mice [1]; 20 mg/kg ip): 0/5; Incidence of BUN > 30 mg % (BDF1 mice [1]; 30 mg/kg ip): 0/5; Deaths D.14 (BDF1 mice [2]; 20 mg/kg ip): 0/5; Deaths D.14 (BDF1 mice [2]; 30 mg/kg ip): 0/5
N[C@@H]1CCCC[C@H]1N.[O-]B([O-])O.[Pt+2] [Example 1, borato trans(-)-1,2-diaminocyclohexane platinum(II)] | 2 mg/kg/inj | 243% | 214% and 242% | 16 mg/kg/inj and 8 mg/kg/inj | 16 mg/kg/ip | 1 | 150% | 5 | 134% | 2 | 147% | 0 | 2/6 | 8 mg/kg/inj | 188% | Incidence of BUN > 30 mg % (BDF1 mice [1]; 16 mg/kg ip): 0/5; Incidence of BUN > 30 mg % (BDF1 mice [1]; 24 mg/kg ip): 0/3; Deaths D.14 (BDF1 mice [2]; 16 mg/kg ip): 0/5; Deaths D.14 (BDF1 mice [2]; 24 mg/kg ip): 3/5
